Experimental data taken from paper PMC5510229, “BCAT1 controls metabolic reprogramming in activated human macrophages and is associated with inflammatory diseases” (Nature Communications, 2017).

System: mouse bone marrow derived macrophages (BMDMs)
Test: BMDM transwell migration assay
Assay type: cell-based, C57BL/6 mouse
Details: 10 hours, 10% FBS as chemo-attractant
Excerpt: Figure 6 ERG240 treatment results in reduced macrophage infiltration in CIA and crescentic glomerulonephritis. (a) Inhibition of murine BMDM migration in vitro in the presence of different concentrations of ERG240 by transwell migration assay (left panel, results are presented as the average of four experiments). The drug had no effect on cell viability (right panel, results are presented as the average of three experiments). (b) IHC analysis of CIA joints for expression of F4/80. Representative images show F4/80+ cells (indicated with an arrow). F4/80+ cell quantification is shown on the right panel. (c) Representative images showing glomerular ED1 (rat CD68)-positive cells in ERG240 treated animals following NTN. Percentage of glomerular ED1-positive cell quantification is shown on the right panel. Error bars are s.e.m. […]
The migration of BMDMs was assessed using a modified Bo yden chamber methodology. […]
To determine the effect of ERG240 on the total number of BMDMs, cell s were plated onto a 96-well plate at a density of 5,000 cells per well in complete media and allowed to adhere overnight. The cells were then exposed to various drug concentrations overnight and the cell population was quantified with CyQuant Cell Proliferation kit (Life Technologies) using triplicates, in two independent experiments. For hMDMs, cell viability was determined using the alamarBlue® Assa y (Invitrogen). […]

In the case of `CC(=O)C(C)CCC(=O)O` (stereo not shown) [ERG240], the IC50 is reported as 5 to 10 mM.
